Measured values taken from patent US20230090337A1, “PHARMACEUTICAL FORMULATIONS COMPRISING 6-CHLORO-7-(4-(4-CHLOROBENZYL)PIPERAZIN-1 -YL)-2-(1,3-DIMETHYL-1 HPYRAZOL-4-YL)-3H- IMIDAZO[4,5-B]PYRIDINE” (ELLIPSES PHARMA LTD, priority 2020, published 2023).
Where two headings read alike, the source gives them in different places.

Legend:
cytochrome P450 = settings: cited from earlier work
Aurora C = target: T1, Aurora C (Homo sapiens, UniProt Q9UQB9); settings: cited from earlier work
T1 sequence (Q9UQB9 1-309): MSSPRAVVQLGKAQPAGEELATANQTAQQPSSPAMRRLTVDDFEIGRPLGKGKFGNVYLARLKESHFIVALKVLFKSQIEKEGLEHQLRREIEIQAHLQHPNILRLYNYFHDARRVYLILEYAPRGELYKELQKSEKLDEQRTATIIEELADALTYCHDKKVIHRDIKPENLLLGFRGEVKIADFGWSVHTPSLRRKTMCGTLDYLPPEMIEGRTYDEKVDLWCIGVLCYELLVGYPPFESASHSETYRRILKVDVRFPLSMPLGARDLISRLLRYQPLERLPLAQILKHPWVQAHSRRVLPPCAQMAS

Aurora A = target: T2, Aurora A (Homo sapiens, UniProt O14965); settings: cited from earlier work
T2 sequence (O14965 1-403): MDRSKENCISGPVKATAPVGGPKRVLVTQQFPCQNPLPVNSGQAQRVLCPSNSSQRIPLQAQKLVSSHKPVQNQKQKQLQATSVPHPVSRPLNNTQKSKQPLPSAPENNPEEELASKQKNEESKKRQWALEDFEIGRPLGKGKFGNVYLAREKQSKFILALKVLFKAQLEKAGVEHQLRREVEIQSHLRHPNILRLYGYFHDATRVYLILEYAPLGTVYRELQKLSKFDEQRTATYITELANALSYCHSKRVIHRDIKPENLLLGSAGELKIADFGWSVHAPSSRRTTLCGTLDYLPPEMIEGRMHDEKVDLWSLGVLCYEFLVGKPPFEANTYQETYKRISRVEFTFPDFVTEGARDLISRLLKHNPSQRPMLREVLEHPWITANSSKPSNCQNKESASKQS

[1] = Excipient solubilising ability (20% w/v aqueous excipient solutions, DMSO spike, observed for precipitation); format: physicochemical; settings: for solubility: aqueous with cosolvent or surfactant or cyclodextrin, kinetic from dmso stock
Procedure: Promising non-ionic surfactants were further tested. Each was prepared as a 20% w/v aqueous solution.
The excipients tested were (HLB): Cremophor EL (12-14); Cremophor RH 40 (14-16); Labrasol ALF; Solutol HS15 (˜16); Poloxamer P124 (12-18); TPGS (˜13); and Gelucire 44/14 (˜11).
Initially, the concentrated DMSO solution was prepared at 30 mg/mL to give a starting concentration of 3 mg/mL of the compound of Formula (1) in the aqueous vehicle, and the concentration was reduced until a semi-solid excipient was identified which maintained a clear solution of the compound. No excipients solubilised the compound at concentrations >1.5 mg/mL in this experiment, but TPGS unexpectedly performed best—solubilising the compound at a concentration of 1.5 mg/mL in the aqueous vehicle (e.g. 100 μL portion of a 15 mg/mL solution of the compound in DMSO was added to each excipient solution to achieve the final concentration of 1.5 mg/mL). In TPGS the solution remained clear for up to 5 hours.

FLT3 kinases = target: T3, FLT3 kinases (Homo sapiens, UniProt P36888); settings: cited from earlier work
T3 sequence (P36888 27-993): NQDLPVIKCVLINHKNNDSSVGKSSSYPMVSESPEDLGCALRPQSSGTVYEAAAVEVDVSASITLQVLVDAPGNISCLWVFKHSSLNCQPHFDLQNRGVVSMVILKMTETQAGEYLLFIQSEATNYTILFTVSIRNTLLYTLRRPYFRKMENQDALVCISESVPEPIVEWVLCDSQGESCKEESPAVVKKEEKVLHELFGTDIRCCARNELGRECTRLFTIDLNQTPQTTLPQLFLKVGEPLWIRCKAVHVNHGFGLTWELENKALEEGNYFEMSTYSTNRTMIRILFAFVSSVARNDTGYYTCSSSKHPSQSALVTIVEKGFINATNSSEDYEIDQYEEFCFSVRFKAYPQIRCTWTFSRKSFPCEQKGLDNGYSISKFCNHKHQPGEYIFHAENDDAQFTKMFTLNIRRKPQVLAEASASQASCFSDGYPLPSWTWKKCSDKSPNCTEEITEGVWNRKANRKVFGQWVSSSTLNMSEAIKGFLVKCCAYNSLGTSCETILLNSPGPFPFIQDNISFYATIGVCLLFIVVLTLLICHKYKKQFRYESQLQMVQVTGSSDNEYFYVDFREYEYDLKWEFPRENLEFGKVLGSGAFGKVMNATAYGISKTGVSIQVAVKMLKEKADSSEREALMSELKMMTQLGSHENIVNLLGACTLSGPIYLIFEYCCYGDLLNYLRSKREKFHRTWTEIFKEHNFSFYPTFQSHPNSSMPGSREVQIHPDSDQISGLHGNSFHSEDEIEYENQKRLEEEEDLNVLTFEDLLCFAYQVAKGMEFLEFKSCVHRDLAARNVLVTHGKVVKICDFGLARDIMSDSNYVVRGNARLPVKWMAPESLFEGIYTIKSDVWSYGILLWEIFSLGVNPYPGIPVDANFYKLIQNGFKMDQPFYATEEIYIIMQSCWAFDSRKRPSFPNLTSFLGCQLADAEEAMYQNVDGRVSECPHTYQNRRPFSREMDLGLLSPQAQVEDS

hERG = hERG (Homo sapiens, UniProt Q12809); settings: cited from earlier work
hERG, sequence (Q12809 whole entry): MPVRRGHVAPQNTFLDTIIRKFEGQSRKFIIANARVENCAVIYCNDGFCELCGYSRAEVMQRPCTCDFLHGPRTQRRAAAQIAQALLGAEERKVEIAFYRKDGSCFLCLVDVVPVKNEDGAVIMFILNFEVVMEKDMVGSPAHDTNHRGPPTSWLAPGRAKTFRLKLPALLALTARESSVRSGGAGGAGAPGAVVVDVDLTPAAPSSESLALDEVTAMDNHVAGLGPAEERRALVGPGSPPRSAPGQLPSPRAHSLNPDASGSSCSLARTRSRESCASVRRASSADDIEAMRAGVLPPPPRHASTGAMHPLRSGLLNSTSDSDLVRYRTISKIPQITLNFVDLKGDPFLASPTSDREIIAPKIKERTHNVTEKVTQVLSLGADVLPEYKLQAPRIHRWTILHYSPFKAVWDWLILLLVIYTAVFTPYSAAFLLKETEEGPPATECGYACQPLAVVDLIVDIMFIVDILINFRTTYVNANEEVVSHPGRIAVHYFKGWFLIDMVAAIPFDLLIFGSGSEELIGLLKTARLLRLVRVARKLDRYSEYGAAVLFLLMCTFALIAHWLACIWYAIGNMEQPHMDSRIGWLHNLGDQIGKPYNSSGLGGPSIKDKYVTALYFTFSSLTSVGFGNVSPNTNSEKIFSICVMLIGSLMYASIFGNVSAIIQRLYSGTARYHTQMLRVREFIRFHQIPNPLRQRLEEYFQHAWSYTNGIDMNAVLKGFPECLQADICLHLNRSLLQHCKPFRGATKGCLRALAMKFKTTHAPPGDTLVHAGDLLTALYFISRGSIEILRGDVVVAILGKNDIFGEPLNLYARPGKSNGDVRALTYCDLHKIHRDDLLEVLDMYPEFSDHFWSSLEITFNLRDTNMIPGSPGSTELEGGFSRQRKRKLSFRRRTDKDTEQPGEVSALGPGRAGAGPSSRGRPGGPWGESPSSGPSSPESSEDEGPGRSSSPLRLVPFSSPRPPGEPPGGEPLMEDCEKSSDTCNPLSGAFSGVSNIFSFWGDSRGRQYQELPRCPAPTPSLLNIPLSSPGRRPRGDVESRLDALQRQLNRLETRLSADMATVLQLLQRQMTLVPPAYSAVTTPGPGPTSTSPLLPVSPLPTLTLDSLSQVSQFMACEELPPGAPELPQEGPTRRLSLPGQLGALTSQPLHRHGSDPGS

Aurora B = Aurora B (Homo sapiens, UniProt Q96GD4); settings: cited from earlier work
Aurora B, sequence (Q96GD4 whole entry): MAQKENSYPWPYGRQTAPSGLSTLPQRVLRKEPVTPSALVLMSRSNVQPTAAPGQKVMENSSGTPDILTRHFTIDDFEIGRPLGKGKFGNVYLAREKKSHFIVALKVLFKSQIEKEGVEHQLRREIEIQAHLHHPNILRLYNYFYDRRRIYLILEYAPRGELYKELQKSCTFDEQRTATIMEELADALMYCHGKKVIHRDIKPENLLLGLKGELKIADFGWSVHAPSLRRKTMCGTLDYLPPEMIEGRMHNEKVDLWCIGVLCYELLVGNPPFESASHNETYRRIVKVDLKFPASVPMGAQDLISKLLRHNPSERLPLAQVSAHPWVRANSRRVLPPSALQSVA

[2] = Aqueous solubility of salt versus free base; format: physicochemical
[3] = Solubility of the compound of Formula (1) in non-ionic surfactants; format: physicochemical; settings: thermodynamic from solid
Procedure: Approximately 3 mg of the compound of Formula (1) (monofumarate) was weighed out into clean HLPC vials. Various non-ionic surfactants were added in 200 or 300 μL portions up to 1 ml in total. After each addition, the sample was with vortexed (2×30 seconds) sonicated for 6 minutes, and once 1 ml total had been added the sample was kept in an oven at 45° C. for 40 minutes before being cooled to RT to aid dissolution. Observations are provided below:
Those excipients that have a melting point above ambient temperature were heated to above their melting point (e.g. 50° C.-70° C.) and observations were made in the liquid phase.

[4] = Stability / hygroscopicity of salts; format: physicochemical; settings: e.g. due to lower hygroscopicity

Cc1nn(C)cc1-c1nc2c(N3CCN(Cc4ccc(Cl)cc4)CC3)c(Cl)cnc2[nH]1 [compound of Formula (1), 6-chloro-7-(4-(4-chlorobenzyl)piperazin-1-yl)-2-(1,3-dimethyl-1H-pyrazol-4-yl)-3H-imidazo[4,5-b]pyridine]
interaction with cytochrome P450 activity (cytochrome P450): minimal interaction | activity against Aurora C (Aurora C): high activity | activity against Aurora A (Aurora A): high activity | time the suspension remained stable ([1]; 20% w/v aqueous Gelucire 44/14, 1.5 mg/mL): at least 10 days | time the suspension remained stable ([1]; 20% w/v aqueous Poloxamer P124, 1.5 mg/mL): at least 10 days | solubility ([1]; 20% w/v aqueous TPGS solution, 20% w/v aqueous TPGS, 100 μL DMSO solution added to 900 μL excipient solution, read-out: concentration solubilised (clear solution) in the aqueous vehicle): 1500 µg/mL | time the solution remained clear ([1]; 20% w/v aqueous TPGS, 1.5 mg/mL): up to 5 hours | solubility ([1]; 20% w/v aqueous Cremophor EL, Cremophor RH 40, Labrasol ALF, Solutol HS15, Poloxamer P124, TPGS, Gelucire 44/14, read-out: concentration solubilised by any tested excipient): ≤ 1500 µg/mL | activity against FLT3 kinases (FLT3 kinases): high activity | interaction with hERG (hERG): minimal interaction | activity against Aurora B (Aurora B): high activity

Cc1nn(C)cc1-c1nc2c(N3CCN(Cc4ccc(Cl)cc4)CC3)c(Cl)cnc2[nH]1.O=C(O)/C=C/C(=O)O [compound of Formula (1) fumarate, 6-chloro-7-(4-(4-chlorobenzyl)piperazin-1-yl)-2-(1,3-dimethyl-1H-pyrazol-4-yl)-3H-imidazo[4,5-b]pyridine fumarate]
aqueous solubility compared with free base [2]: higher aqueous solubility than the free base | solubility at 40 min ([3]; Capryol 90 (non-ionic surfactant), oil or lipid, in Capryol 90 (fatty acid ester)): < 4600 µg/mL | solubility at 40 min ([3]; Capryol PC MG (non-ionic surfactant), oil or lipid, in Capryol PC MG (fatty acid ester)): < 3600 µg/mL | solubility at 40 min ([3]; Cremophor EL (non-ionic surfactant), organic solvent or mixture, in Cremophor EL (glycerol derivative)): < 4900 µg/mL | solubility at 40 min ([3]; Cremophor RH40 (non-ionic surfactant), organic solvent or mixture, in Cremophor RH40 (glycerol derivative)): < 4400 µg/mL | solubility at 40 min ([3]; Gelucire 44/14 (non-ionic surfactant), organic solvent or mixture, in Gelucire 44/14 (fatty acid ester/glycerol derivative)): < 3500 µg/mL | solubility at 40 min ([3]; Gelucire 50/13 (non-ionic surfactant), organic solvent or mixture, in Gelucire 50/13 (fatty acid ester/glycerol derivative)): < 2700 µg/mL | solubility at 40 min ([3]; Kollisolv P124 (non-ionic surfactant), organic solvent or mixture, in Kollisolv P124 (co-polymer)): < 4500 µg/mL | solubility at 40 min ([3]; Labrafac PC (non-ionic surfactant), oil or lipid, in Labrafac PC (fatty acid ester)): < 2100 µg/mL | solubility at 40 min ([3]; Labrafil 1944 (non-ionic surfactant), oil or lipid, in Labrafil 1944 (glycerol derivative)): < 5000 µg/mL | solubility at 40 min ([3]; Labrafil 2125 (non-ionic surfactant), oil or lipid, in Labrafil 2125 (glycerol derivative)): < 5500 µg/mL | solubility at 40 min ([3]; Labrasol ALF (non-ionic surfactant), organic solvent or mixture, in Labrasol ALF (glycerol derivative)): < 3500 µg/mL | solubility at 40 min ([3]; Miglyol 812N (non-ionic surfactant), oil or lipid, in Miglyol 812N (glycerol derivative)): < 3200 µg/mL | solubility at 40 min ([3]; Softisan 378 (non-ionic surfactant), oil or lipid, in Softisan 378 (glycerol derivative)): < 4300 µg/mL | solubility at 40 min ([3]; Tween 80 (non-ionic surfactant), organic solvent or mixture, in Tween 80 (sorbitan derivative), ~3 mg monofumarate, up to 1 ml, vortexed, sonicated, 45° C. 40 min): < 3700 µg/mL | solubility at 40 min ([3]; Vitamin E TPGS (non-ionic surfactant), organic solvent or mixture, in Vitamin E TPGS (vitamin E derivative)): < 3200 µg/mL | stability compared with other pharmaceutically acceptable salts [4]: greater stability
